{"source": "patent US20100286082A1", "about": "“RIBOSWITCHES AND METHODS AND COMPOSITIONS FOR USE OF AND WITH RIBOSWITCHES” (Yale University, priority 2007, published 2010)", "key": {"17-90 RNA mutant U41": {"tested_on": "17-90 RNA mutant U41", "test": "In-line probing of mutant (U41) 17-90 RNA", "assay_type": "binding, Streptococcus pneumoniae R6", "conditions": "compared with wild type"}, "17-90 RNA [1]": {"tested_on": "17-90 RNA", "test": "In-line probing of 17-90 RNA (preQ1-II aptamer)", "assay_type": "binding, Streptococcus pneumoniae R6", "conditions": "compound concentrations up to 1 mM"}, "[2]": {"tested_on": "SAH riboswitch of the ahcY 5′-UTR fused to lacZ (WT reporter strain)", "test": "In vivo reporter gene expression, ahcY 5′ UTR-lacZ translational fusion", "assay_type": "cell-based, Pseudomonas syringae", "conditions": "Vogel-Bonner minimal medium supplemented with 250 μM compound", "description": "An in vivo gene control assay was conducted wherein the IGR encompassing the 5′ UTR of the ahcY gene in P. syringae was fused immediately upstream of a lacZ coding sequence. This construct retained the start codon of the ahcY gene, which was fused in frame with the reporter gene ORF. The resulting translational fusion vector was transformed into P. syringae to produce the wild-type (WT) reporter strain. Similarly, a series of mutant reporter strains were constructed that are expected to disrupt or restore aptamer function (FIG. 13A). Transformed P. syringae strains subsequently were grown in either King's medium B (rich) or Vogel-Bonner medium (minimal), and the reporter expression levels of the mutant constructs were compared to the results from the WT reporter construct (FIG. 13B).\nNucleotides ˜367 to +6 relative to the predicted ahcY translation start site (GenBank accession: NC—004578.1; nucleotides 5,771,072 to 5,771,444) were amplified as a BamHI-HindIII fragment by whole-cell PCR of Pseudomonas syringae pv. tomato str. DC3000. The PCR product was cloned into the translational fusion vector pRA301 (Akakura and Winans, 2002) immediately upstream of the lacZ reporter gene. This reporter vector is stably maintained in pseudomonas since it harbors the origin of replication rep and stability region sta derived from the pseudomonas aeruginosa vector pVS1 (Itoh et al., 1984). […]"}, "68 metH RNA": {"molecular_target": "68 metH RNA", "test": "In-line probing of 68 metH RNA (SAH aptamer)", "assay_type": "binding, Dechloromonas aromatica", "conditions": "in-line probing; read-out: apparent dissociation constant KD", "description": "iii. In-Line Probing Analysis In-line probing assays were carried out essentially as previously described (Soukup and Breaker, 1999). 5′^32P-labeled RNAs were incubated at room temperature for approximately 40 h in 10 μl volumes containing 50 mM Tris-HCl (pH 8.3 at 25° C.), 20 mM MgCl2, 100 mM KCl, and included test compounds at the concentrations indicated. Spontaneous cleavage products were separated by denaturing 10% PAGE, visualized using a Phosphorlmager (Molecular Dynamics), and quantified using SAFA v1.1 software (Das et al., 2005). The amount of RNA cleaved at each nucleotide position was obtained from SAFA analysis, which automatically determines reference nucleotide positions with invariant levels of spontaneous cleavage to correct for different amounts loaded in each lane. Individual band intensities at each modulated site were summed and normalized to obtain values for the fraction of RNA that was structurally modulated, assuming that there was no modulation in the absence of ligand and maximal modulation in the presence of the highest concentration of ligand. Values for the apparent dissociation constant (KD) were determined by fitting the plot of the fraction modulated (F), versus the ligand concentration, [L], at all three indicated modulation sites to the equation F [L]/([L]+KD) using SigmaPlot 9 software (Systat Software, Inc.)."}, "[3]": {"molecular_target": "SAM-I riboswitch 124 yitJ", "test": "SAM-I riboswitch binding (literature)", "conditions": "ratio of the KD for the compound to that for SAM"}, "[4]": {"molecular_target": "SAM-I riboswitch 124 yitJ", "conditions": "cited from earlier work"}, "SAM-II aptamer 156 metA": {"tested_on": "SAM-II aptamer 156 metA", "conditions": "representative of SAM-II aptamers, Lim et al., 2006b; cited from earlier work"}, "[5]": {"molecular_target": "132 Sc RNA (SAM-IV riboswitch)", "test": "In-line probing of 132 Sc RNA (SAM-IV)", "assay_type": "binding, Streptomyces coelicolor", "source_text": "DNA corresponding to the aptamer in the pEZ35 plasmid (above) was amplified by PCR with primers 5′-[…]"}, "17-90 RNA [6]": {"tested_on": "17-90 RNA", "test": "Equilibrium dialysis of 3H-preQ1 with 17-90 RNA", "assay_type": "binding, Streptococcus pneumoniae R6", "conditions": "excess unlabeled compound added to chamber a after equilibration", "description": "Equilibrium dialysis experiments were preformed with ^3H-preQ1 and the 17-90 RNA construct to confirm ligand binding and the specificity of molecular recognition using a different methodology. For equilibrium dialysis, ^3H-preQ1 was added to chamber a of an equilibrium dialysis apparatus, and excess RNA is added to chamber b. The two chambers are separated by a 5,000 Dalton molecular weight cut off dialysis membrane (FIG. 18A). The solutions were allowed to equilibrate and the fraction of tritium in each chamber was subsequently measured by liquid scintillation counting. […] When ^3H-preQ1 ([…]) is equilibrated without RNA, or with an RNA that lacks the ability to form the P3 stem (1-81 RNA), the ^3H label distributes evenly (b/a ˜1). […]\nA 30 μl mixture containing 50 mM Tris-HCl (pH 8.3 at 23° C.), 20 mM MgCl2, 100 mM KCl, and 1 μM of ^3H-labeled preQ1 was placed in one chamber of a DispoEquilibrium Dialyzer (ED-1, Harvard Bioscience) and the same volume containing the same constituents minus the ^3H-labeled preQ1 was added to the opposing side. When noted, the latter solution also contained either 5 μM 17-90 RNA or 5 μM 1-81 RNA. After equilibrating for 14 hours, a 5 μl aliquot was removed from each side of the apparatus to determine the distribution of ^3H-label in the two chambers by liquid scintillation counting. […]"}}}
{"smiles": "Nc1nc(N)c2[nH]cnc2n1", "note": "[DAP, 2,6-diaminopurine]", "values": [{"measurement": "binding by the U41 mutant", "setting": "17-90 RNA mutant U41", "value": "essentially the same affinity as wild type"}, {"measurement": "binding by 17-90 RNA", "setting": "17-90 RNA [1]", "value": "near identical KD values"}]}
{"smiles": "Nc1ncnc2c1ncn2[C@@H]1O[C@H](CSCC[C@H](N)C(=O)O)[C@@H](O)[C@H]1O", "note": "[SAH, S-adenosylhomocysteine]", "values": [{"measurement": "riboswitch-mediated reporter expression", "setting": "[2]", "value": "only slightly increases reporter expression"}, {"measurement": "Kd", "setting": "68 metH RNA", "value": "~20", "unit": "nM"}, {"measurement": "KD [compound]/ KD [SAM] SAM-I", "setting": "[3]", "value": 80}, {"measurement": "Kd", "setting": "[4]; calculated previously (Lim et al. 2006), read-out: KD [compound] (nM) SAM-I", "value": 400, "unit": "nM"}, {"measurement": "discrimination against SAH", "setting": "[4]; representative of SAM-I aptamers, Lim et al., 2006b", "value": "~80", "unit": "fold"}, {"measurement": "discrimination against SAH", "setting": "SAM-II aptamer 156 metA", "value": "more than 1000 fold"}, {"measurement": "Kd", "setting": "[5]; in-line probing, 132 Sc RNA, read-out: apparent dissociation constant (KD)", "value": 20, "unit": "µM"}, {"measurement": "KD [compound]/ KD [SAM] SAM-IV", "setting": "[5]; ratio of the KD for the compound to that for SAM", "value": 133}]}
{"smiles": "Nc1nc2nc[nH]c2c(=O)[nH]1", "note": "[guanine]", "values": [{"measurement": "competition with 3H-preQ1 (distribution of 3H label)", "setting": "17-90 RNA [6]", "value": "has no effect on the distribution of ^3H"}]}
